Source: patent EP0063946A1, “Diagnosis of kidney function” (priority 1981, dated 1982)

Experiments:
[1] = Animal biodistribution and clearance studies in rats; format: in vivo
Procedure: Samples for animal biodistribution studies were administered 1-2 hours post preparation.
Comparative data for Hippuran, Tc-99m TDG and Tc-99m DTPA in rats is set out in Table II.

[2] = background statement; cited from earlier work

O=C(O)CNC(=O)c1ccccc1[131I] [Hippuran, sodium iodohippurate]
Clearance half time [1]: 10.4 min
% in urine at 30 min p.i. ([1]; 30 min p.i.): 82.6%
2 hour dissection (% injected dose) Bladder ([1]; 2 hour dissection): 93.0 % injected dose
2 hour dissection (% injected dose) Intestine ([1]; 2 hour dissection): 2.5 % injected dose
2 hour dissection (% injected dose) Kidney ([1]; 2 hour dissection): 0.2 % injected dose
2 hour dissection (% injected dose) Liver ([1]; 2 hour dissection): 0.2 % injected dose
removed from the blood in a single pass through the kidney [2]: About 80%
